The target in the experiment is T1, hM5 (Homo sapiens, UniProt P08912).
T1 construct: expressed in transfected cells
T1 sequence (P08912 1-532): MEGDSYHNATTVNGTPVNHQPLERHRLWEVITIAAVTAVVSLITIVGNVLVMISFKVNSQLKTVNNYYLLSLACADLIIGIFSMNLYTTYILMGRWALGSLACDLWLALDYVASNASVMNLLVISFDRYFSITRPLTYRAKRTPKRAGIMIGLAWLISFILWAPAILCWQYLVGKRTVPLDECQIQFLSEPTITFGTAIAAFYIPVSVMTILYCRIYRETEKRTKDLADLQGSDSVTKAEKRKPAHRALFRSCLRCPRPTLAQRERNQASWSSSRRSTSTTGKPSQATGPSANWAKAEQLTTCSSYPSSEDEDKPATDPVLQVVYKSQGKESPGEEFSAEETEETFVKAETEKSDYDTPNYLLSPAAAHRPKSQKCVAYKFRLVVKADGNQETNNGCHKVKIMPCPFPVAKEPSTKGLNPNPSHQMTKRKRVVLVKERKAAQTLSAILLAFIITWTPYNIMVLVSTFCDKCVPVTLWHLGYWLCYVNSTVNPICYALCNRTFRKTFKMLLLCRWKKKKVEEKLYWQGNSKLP
Put plainly: Calcium mobilization concentration-response (IC50 vs EC80 acetylcholine), CHO hM5. It counts as cell-based. The settings on record: CELL LINE hM5, read-out: IC50. The method in brief:
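IC50 values derive from percent maximal acetylcholine response after an EC80 ACh addition, measured as kinetic calcium fluorescence (static ratio, max−min). Test compounds were added 140 s before agonist. Cells: stable hM5-CHO in HEPES-buffered HBSS with 2.5 mM probenecid, pH 7.4; ≥3 independent triplicate determinations.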

Where [1] appears, read: calcium mobilization, EC80 acetylcholine addition.

Like-named read-outs stand apart in the source and are kept apart here. Some results are limits rather than exact numbers.

Broadly, the IC50 is the concentration that gives 50% inhibition. Turning to `Cc1cc2ncnn2cc1C1(F)CCN(S(=O)(=O)c2cnn(C)c2C)CC1` [Compound 173, 6-(1-((1,5-dimethyl-1H-pyrazol-4-yl)sulfonyl)-4-fluoropiperidin-4-yl)-7-methyl-[1,2,4]triazolo[1,5-a]pyridine], the IC50 under setting [1] amounted to 82 nM.
Take `O=S(=O)(c1ccc2c(c1)CCO2)N1CCC(c2ccc3ncnn3c2)CC1` [Compound 60, 6-(1-((2,3-dihydrobenzofuran-5-yl)sulfonyl)piperidin-4-yl)-[1,2,4]triazolo[1,5-a]pyridine]: the IC50 under setting [1] is greater than 10000 nM.
As to `Cc1ncc(S(=O)(=O)N2CCC(c3cn4ncnc4cc3C)CC2)o1` [Compound 492, 2-methyl-5-((4-(7-methyl-[1,2,4]triazolo[1,5-a]pyridin-6-yl)piperidin-1-yl)sulfonyl)oxazole], under “vs EC80 acetylcholine”, the IC50 was 76 nM.
Still for that read-out and setting: to `Cc1cc(S(=O)(=O)N2CCC(c3cn4ncnc4cc3Cl)CC2)sn1` [Compound 483, 5-((4-(7-chloro-[1,2,4]triazolo[1,5-a]pyridin-6-yl)piperidin-1-yl)sulfonyl)-3-methylisothiazole] belongs 6 nM.
`COc1cc2ncnn2cc1C1CCN(S(=O)(=O)c2cn(C)nc2C)CC1` [Compound 83, 6-(1-((1,3-dimethyl-1H-pyrazol-4-yl)sulfonyl)piperidin-4-yl)-7-methoxy-[1,2,4]triazolo[1,5-a]pyridine]: the IC50 under setting [1] was greater than 10000 nM.
For `[2H]C1([2H])CC(c2cn3ncnc3cc2C)CC([2H])([2H])N1S(=O)(=O)c1cnc(C)o1` [Compound 568, 2-methyl-5-((4-(7-methyl-[1,2,4]triazolo[1,5-a]pyridin-6-yl)piperidin-1-yl-2,2,6,6-d4)sulfonyl)oxazole], the concentration for half-maximal inhibition (IC50) (vs EC80 acetylcholine) is 47 nM.
Still for that read-out and setting: to `Cc1c(S(=O)(=O)N2CCC(c3cn4ncnc4cc3C(F)F)CC2)cnn1C` [Compound 455, 7-(difluoromethyl)-6-(1-((1,5-dimethyl-1H-pyrazol-4-yl)sulfonyl)piperidin-4-yl)-[1,2,4]triazolo[1,5-a]pyridine] belongs 63 nM.
On to `CCc1cc2ncnn2cc1C1CCN(S(=O)(=O)c2cnc3n2CCCC3)CC1` [Compound 335, 7-ethyl-6-(1-((5,6,7,8-tetrahydroimidazo[1,2-a]pyridin-3-yl)sulfonyl)piperidin-4-yl)-[1,2,4]triazolo[1,5-a]pyridine], for which the 50% inhibitory concentration (IC50) under setting [1] worked out at 83 nM.
On to `CO[C@@H]1CN(S(=O)(=O)c2cnn3c2OCCC3)CC[C@H]1c1cn2ncnc2cc1C` (racemic) [Compound 414, (rac)-3-((trans-3-methoxy-4-(7-methyl-[1,2,4]triazolo[1,5-a]pyridin-6-yl)piperidin-1-yl)sulfonyl)-6,7-dihydro-5H-pyrazolo[5,1-b][1,3]oxazine], for which, for the setting “vs EC80 acetylcholine”, the IC50 is 1460 nM.
With `Cc1cc2ncnn2cc1C1CCN(S(=O)(=O)c2cn(C)nc2C(F)(F)F)CC1` [Compound 101, 7-methyl-6-(1-((1-methyl-3-(trifluoromethyl)-1H-pyrazol-4-yl)sulfonyl)piperidin-4-yl)-[1,2,4]triazolo[1,5-a]pyridine], under setting [1], the IC50 was 2100 nM.
For `Cc1cc2ncnn2cc1C1(F)CCN(S(=O)(=O)c2cnn3c2OCCC3)CC1` [Compound 421, 3-((4-fluoro-4-(7-methyl-[1,2,4]triazolo[1,5-a]pyridin-6-yl)piperidin-1-yl)sulfonyl)-6,7-dihydro-5H-pyrazolo[5,1-b][1,3]oxazine], the IC50 (vs EC80 acetylcholine) came out at 69 nM.
With `Cc1cc2ncnn2cc1C1=CCN(S(=O)(=O)c2ccc3c(c2)CC(C)O3)CC1` (stereo not drawn) [Compound 49, 7-methyl-6-(1-((2-methyl-2,3-dihydrobenzofuran-5-yl)sulfonyl)-1,2,3,6-tetrahydropyridin-4-yl)-[1,2,4]triazolo[1,5-a]pyridine], the concentration for half-maximal inhibition (IC50) under setting [1] is greater than 10000 nM.
On to `Cc1nc(C)c(S(=O)(=O)N2CCC(c3nn4ncnc4cc3C)CC2)s1` [Compound 215, 2,4-dimethyl-5-((4-(7-methyl-[1,2,4]triazolo[1,5-b]pyridazin-6-yl)piperidin-1-yl)sulfonyl)thiazole], for which, under setting [1], the IC50 was greater than 10000 nM.
Take `Cc1c(S(=O)(=O)N2CCC(c3cn4ncnc4cc3Cl)CC2)cnn1C` [Compound 291, 7-chloro-6-(1-((1,5-dimethyl-1-pyrazol-4-yl)sulfonyl)piperidin-4-yl)-[1,2,4]triazolo[1,5-a]pyridine]: the IC50 under setting [1] came to 36 nM.
Same read-out and setting: as for `Cc1nn(C)c(Cl)c1S(=O)(=O)N1CCC(c2cn3ncnc3c(F)c2C)CC1` [Compound 318, 6-(1-((5-chloro-1,3-dimethyl-1H-pyrazol-4-yl)sulfonyl)piperidin-4-yl)-8-fluoro-7-methyl-[1,2,4]triazolo[1,5-a]pyridine], the figure is 15 nM.
In the case of `O=S(=O)(c1cnn2c1OCCC2)N1CCC(F)(c2cn3ncnc3cc2F)CC1` [Compound 506, 3-((4-fluoro-4-(7-fluoro-[1,2,4]triazolo[1,5-a]pyridin-6-yl)piperidin-1-yl)sulfonyl)-6,7-dihydro-5H-pyrazolo[5,1-b][1,3]oxazine], the concentration for half-maximal inhibition (IC50) (vs EC80 acetylcholine) came out at 946 nM.
Still for that read-out and setting: as for `Cc1cc2ncnn2cc1C1(F)CCN(S(=O)(=O)c2cnn(C)c2C#N)CC1` [Compound 462, 4-((4-fluoro-4-(7-methyl-[1,2,4]triazolo[1,5-a]pyridin-6-yl)piperidin-1-yl)sulfonyl)-1-methyl-1H-pyrazole-5-carbonitrile], the figure is 86 nM.
For `Cc1cc2ncnn2nc1C1CCN(S(=O)(=O)c2ccc3c(c2)CCO3)CC1` [Compound 164, 6-(1-((2,3-dihydrobenzofuran-5-yl)sulfonyl)piperidin-4-yl)-7-methyl-[1,2,4]triazolo[1,5-b]pyridazine], under setting [1], the IC50 was 5900 nM.
Take `Cc1c(S(=O)(=O)N2CC=C(c3cc4c(cc3Cl)OCO4)CC2)cnn1C` [Compound 350, 4-(6-chlorobenzo[d][1,3]dioxol-5-yl)-1-((1,5-dimethyl-1H-pyrazol-4-yl)sulfonyl)-1,2,3,6-tetrahydropyridine]: the 50% inhibitory concentration (IC50) under setting [1] stood at 11 nM.
Still for that read-out and setting: to `O=S(=O)(c1ccc2c(c1)CCO2)N1CCC(c2ccc3c(c2)OCO3)CC1` [Compound 359, 4-(benzo[d][1,3]dioxol-5-yl)-1-((2,3-dihydrobenzofuran-5-yl)sulfonyl)piperidine] belongs greater than 10000 nM.
For the compound `Cc1cc2ncnn2cc1C1CCN(S(=O)(=O)c2cnn(C)c2N2CCOCC2)CC1` [Compound 622, 4-(1-Methyl-4-((4-(7-methyl-[1,2,4]triazolo[1,5-a]pyridin-6-yl)piperidin-1-yl)sulfonyl)-1H-pyrazol-5-yl)morpholine], the concentration for half-maximal inhibition (IC50) (vs EC80 acetylcholine) was determined as 1970 nM.
Regarding `Cc1cc2ncnn2nc1C1CCN(S(=O)(=O)c2cnn(C(F)F)c2C)CC1` [Compound 176, 6-(1-((1-(difluoromethyl)-5-methyl-1H-pyrazol-4-yl)sulfonyl)piperidin-4-yl)-7-methyl-[1,2,4]triazolo[1,5-b]pyridazine], the IC50 under setting [1] is greater than 10000 nM.
Same read-out and setting: as for `[2H]C1([2H])Oc2ccc(S(=O)(=O)N3CCC(c4cn5ncnc5cc4OC)CC3)cc2C1([2H])[2H]` [Compound 92, 6-(1-((2,3-dihydrobenzofuran-5-yl-2,2,3,3-d4)sulfonyl)piperidin-4-yl)-7-methoxy-[1,2,4]triazolo[1,5-a]pyridine], the figure is greater than 10000 nM.
Consider `Cc1cc2ncccc2cc1C1CCN(S(=O)(=O)c2cnn(C)c2C)CC1` [Compound 418, 6(1-((1,5-dimethyl-1H-pyrazol-4-yl)sulfonyl)piperidin-4-yl)-7-methylquinoline], for which, where the note is “vs EC80 acetylcholine”, the 50% inhibitory concentration (IC50) came to 32 nM.
The same measure, in the same setting: to `Cc1cc2ncnn2cc1C1CCN(S(=O)(=O)c2cnc3sccn23)CC1` [Compound 526, 5-((4-(7-methyl-[1,2,4]triazolo[1,5-a]pyridin-6-yl)piperidin-1-yl)sulfonyl)imidazo[2,1-b]thiazole] belongs 14 nM.
For `Cc1cc2ncnn2nc1C1=CCN(S(=O)(=O)c2ccc3c(c2)CCO3)CC1` [Compound 167, 6-(1-((2,3-dihydrobenzofuran-5-yl)sulfonyl)-1,2,3,6-tetrahydropyridin-4-yl)-7-methyl-[1,2,4]triazolo[1,5-b]pyridazine], the IC50 under setting [1] is greater than 10000 nM.
For `Cn1ncc(S(=O)(=O)N2CCC(c3ccc4ncnn4c3)CC2)c1C#N` [Compound 432, 4-((4-([1,2,4]triazolo[1,5-a]pyridin-6-yl)piperidin-1-yl)sulfonyl)-1-methyl-1H-pyrazole-5-carbonitrile], under “vs EC80 acetylcholine”, the concentration for half-maximal inhibition (IC50) was determined as 777 nM.
Turning to `Cc1c(C2CCN(S(=O)(=O)c3ccc4c(c3)CCO4)CC2)nn2ccnc2c1C` [Compound 45, 6-(1-((2,3-dihydrobenzofuran-5-yl)sulfonyl)piperidin-4-yl)-7,8-dimethylimidazo[1,2-b]pyridazine], the IC50 under setting [1] is greater than 10000 nM.
Same read-out and setting: to `Cc1cc2ncnn2cc1C1CCN(S(=O)(=O)c2ncn(C)c2Cl)CC1` [Compound 321, 6-(1-((5-chloro-1-methyl-1H-imidazol-4-yl)sulfonyl)piperidin-4-yl)-7-methyl-[1,2,4]triazolo[1,5-a]pyridine] belongs 1100 nM.
On the same count and under the same terms, as for `Cc1c(S(=O)(=O)N2CCC(c3cn4ncnc4cc3C(F)(F)F)CC2)cnn1C` [Compound 273, 6-(1-((1,5-dimethyl-1H-pyrazol-4-yl)sulfonyl)piperidin-4-yl)-7-(trifluoromethyl)-[1,2,4]triazolo[1,5-a]pyridine], the figure is 150 nM.

The record behind these values is patent US20230183237A1, “COMPETITIVE AND NONCOMPETITIVE INHIBITORS OF THE MUSCARINIC ACETYLCHOLINE RECEPTOR M5” (Vanderbilt University, priority 2020, published 2023).
